From patent US20190275179A1, “SONOPHORE-LABELED PROBES AND RELATED IN VIVO IMAGING TECHNIQUES” (MEMORIAL SLOAN KETTERING CANCER CENTER, priority 2016, published 2019)

Columns and labels:
[1] = In vivo optoacoustic imaging (RSOM) of BHQ-1 in mouse footpad; set-up: species or system mice
Protocol: For in vivo experiments, 6-8 week old female Hsd: Athymic Nude-Foxn1^nu mice were purchased from Envigo (IN, US). All animal experiments were performed in accordance with institutional guidelines and approved by the IACUC of MSK, and followed NIH guidelines for animal welfare.
For imaging, a high-resolution raster-scan optoacoustic mesoscopy (RSOM) prototype scanner was used in an epi-illumination mode. The scanner illuminates the tissue with a fast monochromatic nanosecond laser (1 ns, 2 kHz, 1 mJ pulse energy at 532 nm). The laser light was coupled to the sample using a three arm fiber bundle which is combined with the ultrasound detector into a single scan unit. The optoacoustic signals were measured with a 50 MHz spherically focused detector and a bandwidth of 5-80 MHz. Furthermore, the signals were amplified with a 63 dB low noise amplifier and digitized using a fast 12 bit data acquisition card. The scan was performed in a continuous-discrete manner. The usual scan took 1.30 minutes for a field of view of 8×8 mm^2 and the maximum depth was about 2 mm, limited by the penetration depth of 532 nm photons in tissue.
The raw signals were transformed to the computer on which they were later reconstructed using beam forming. Before reconstruction, the signals were divided into two sub-bands: low frequencies 5-25 MHz and high frequencies 25-80 MHz. These sub-bands were later on separately reconstructed an overlayed using different colors (red=low frequencies, green=high frequencies). For the reconstruction a speed of sound of 1540 m/s has been used and the reconstruction has been performed with voxel sizes of 20×20×5 μm^3. Finally, the Hilbert transform was applied to the reconstructed volume to remove the negative values and the images were further processed using a Wiener and a Median filter to improve the signal to noise ratio. For visualization we took the maximum intensity of the three-dimensional volume.
All mice were anesthetized using 2% isoflurane. For imaging the quencher dye in vivo, 10 nmol BHQ-1 solution were injected subcutaneously into the footpad of 3 mice. The mouse was then placed in a pre-warmed water bath on a mouse bed keeping the head of the animal above water level. The foot of the mouse was stabilized under water with tape to keep it in a static position for the measurement procedure. The feet were measured before and directly after injection using RSOM as described under 2.3. Quantitative analysis was done in ImageJ by placing a ROI over the injection site of each foot as well as over the background blood vessels in the foot pad.

[2] = Absorbance spectra of BHQ-1 and BHQ-1-cRGD by spectrophotometry; type: physicochemical; conditions: measured in ethanol, 250 nm to 750 nm
Protocol: To a stirring solution of cyclic RGD (cyclo(Arg-Gly-Asp-D-Phe-Lys) (cRGD), 1.0 mg, 1.66 μmol, 1.0 eq., Peptides International, KY, US) in anhydrous DMF (200 μL) a solution of BHQ-1 N-hydroxysuccinimide (NHS) ester (1.2 mg, 2.0 μmol, 1.2 eq., Biosearch Technologies, CA, US) in anhydrous DMF (200 μL) and […] (1.2 μL, 8.0 μmol, 4.8 eq.) was added sequentially. The resulting reaction solution was stirred for 4 h at room temperature. Purification by high performance liquid chromatography (HPLC) (C18, 10% to 100% of acetonitrile over 10 min, then 100% of acetonitrile until 18 min, 1.0 mL/min) yielded BHQ-1-cRGD (1.5 mg, 1.4 μmol, 82%) as a black solid. The purity of BHQ-1-cRGD was analyzed by performing analytical HPLC (rt=11.0 min, >97%). The identity of the product ([…], MW: 1090.21 g/mol) was verified by electrospray ionization mass spectrometry (ESI(+): m/z (%) 546.70 (100) [M+2H]^2+, 1090.40 (25) [M+H]^+). The absorbance spectra of BHQ-1 and BHQ-1-cRGD were measured in ethanol using spectrophotometry from 250 nm to 750 nm.

[3] = 10 nmol subcutaneous into footpad

absorption spectrum peak [2]: 515 nm
Structure (SMILES): COc1cc(/N=N/c2ccc(C)cc2[N+](=O)[O-])c(C)cc1/N=N/c1ccc(N)cc1 [BHQ-1]
optoacoustic signal at the injection site, high frequencies (25-80 MHz) [1, 3]: 55.6±5.7 AU
optoacoustic signal at the injection site, low frequencies (5-25 MHz) [1, 3]: 67.2±3.4 AU
optoacoustic signal at the injection site, overlay image of all detected frequencies ([1]; 10 nmol subcutaneous into footpad, directly after injection): 121.6±14.2 AU
optoacoustic signal at injection site relative to surrounding footpad vessels ([1]; overlay of all frequencies, 10 nmol s.c.): ~5 times
